Results reported in paper PMC10254649, “Design, Synthesis, and Biological Evaluation of Potent and Selective Inhibitors of Ataxia Telangiectasia Mutated and Rad3-Related (ATR) Kinase for the Efficient Treatment of Cancer” (Molecules, 2023).
Several values for one entry are separate records, joined by “and”; a condition that tells them apart may be missing. Identical values can stand only once.

Tests used:
ATR = ATR (Homo sapiens, UniProt Q13535); experiment: In vitro inhibitory activity against the ATR enzyme; format: biochemical; conditions: mean ± SD of two independent experiments; read-out: ATR IC50 ± SD
A549 cells = experiment: CCK-8 cell proliferation assay, A549; format: cell-based; conditions: Homo sapiens, CCK-8, 72 h, ATM-normal cell line, three independent experiments, read-out: IC50 ± SD, A549
Description: (§1) A549, HCT116, NCI-H23, and LoVo cells were purchased from the Cell Resources Center of Shanghai Academy of Life Sciences, Shanghai, China. A549 cells were cultured in McCoy’s5A medium supplemented with 10% FBS (KeyGEN Biotech, Nanjing, China) and 1% penicillin/streptomycin (Gibco, 15070-063). HCT116 cells were cultured in IMDM medium supplemented with 10% FBS (KeyGEN Biotech, Nanjing, China) and 1% penicillin/streptomycin (Gibco, 15070-063). NCI-H23 cells were cultured in RPMI 1640 medium supplemented with 10% FBS (KeyGEN Biotech, Nanjing, China) and 1% penicillin/streptomycin (Gibco, 15070-063). LoVo cells were cultured in F12K medium supplemented with 10% FBS (KeyGEN Biotech, Nanjing, China) and 1% penicillin/streptomycin (Gibco, 15070-063). All cells were cultured in an incubator at 37 °C under a 5% CO2 atmosphere.
(§2) For the assay, 3000/well cells were planted into 96-well plates for 24 h and then treated with the indicated doses of drugs or controls for 72 h. Following the manufacturer’s instructions, cell proliferation/survival was measured using the CCK-8 (KeyGEN Biotech, Nanjing, China) assay and plotted via GraphPad 8.0.

HCT116 cells = experiment: CCK-8 cell proliferation assay, HCT116; format: cell-based; conditions: Homo sapiens, HCT-116; CCK-8, 72 h, ATM-normal cell line, three independent experiments; read-out: IC50 ± SD, HCT116
Description: as §1, §2

NCI-H23 cells = experiment: CCK-8 cell proliferation assay, NCI-H23; format: cell-based; conditions: Homo sapiens, CCK-8, 72 h, ATM-deficient cell line, three independent experiments, read-out: IC50 ± SD, NCI-H23
Description: as §1, §2

LoVo cells = experiment: CCK-8 cell proliferation assay, LoVo; format: cell-based; conditions: Homo sapiens, CCK-8, 72 h, ATM-deficient cell line, three independent experiments, read-out: IC50 ± SD, LoVo
Description: as §1, §2

LoVo xenografts = experiment: LoVo tumor xenograft mouse model, antitumor efficacy and tolerability; format: in vivo
Description: Balb/c nude mice (18–22 g, female, 4 weeks old) were purchased from Hangzhou Medical College (Hangzhou, China). All mice were inoculated subcutaneously in the right flank with 5 × 10^6 LoVo cells to initiate tumor growth. When the mean tumor volume reached approximately 100 mm^3, all mice were randomly divided into 8 groups (n = 5 per group) based on body weight and volume. […] Cisplatin was administered twice a week at the indicated doses. Tumor size and animal weight were measured every 3 days. Tumor volume was calculated as tumor volume (cm^3) = (length × width^2)/2. Tumor inhibition rate (%) = (1 − mean tumor weight in the treatment group/mean tumor weight in the control group) × 100%. The results were obtained from 5 test mice (mean ± SD) and calculated using GraphPad 8.0 software.

ATR, sequence (Q13535 whole entry): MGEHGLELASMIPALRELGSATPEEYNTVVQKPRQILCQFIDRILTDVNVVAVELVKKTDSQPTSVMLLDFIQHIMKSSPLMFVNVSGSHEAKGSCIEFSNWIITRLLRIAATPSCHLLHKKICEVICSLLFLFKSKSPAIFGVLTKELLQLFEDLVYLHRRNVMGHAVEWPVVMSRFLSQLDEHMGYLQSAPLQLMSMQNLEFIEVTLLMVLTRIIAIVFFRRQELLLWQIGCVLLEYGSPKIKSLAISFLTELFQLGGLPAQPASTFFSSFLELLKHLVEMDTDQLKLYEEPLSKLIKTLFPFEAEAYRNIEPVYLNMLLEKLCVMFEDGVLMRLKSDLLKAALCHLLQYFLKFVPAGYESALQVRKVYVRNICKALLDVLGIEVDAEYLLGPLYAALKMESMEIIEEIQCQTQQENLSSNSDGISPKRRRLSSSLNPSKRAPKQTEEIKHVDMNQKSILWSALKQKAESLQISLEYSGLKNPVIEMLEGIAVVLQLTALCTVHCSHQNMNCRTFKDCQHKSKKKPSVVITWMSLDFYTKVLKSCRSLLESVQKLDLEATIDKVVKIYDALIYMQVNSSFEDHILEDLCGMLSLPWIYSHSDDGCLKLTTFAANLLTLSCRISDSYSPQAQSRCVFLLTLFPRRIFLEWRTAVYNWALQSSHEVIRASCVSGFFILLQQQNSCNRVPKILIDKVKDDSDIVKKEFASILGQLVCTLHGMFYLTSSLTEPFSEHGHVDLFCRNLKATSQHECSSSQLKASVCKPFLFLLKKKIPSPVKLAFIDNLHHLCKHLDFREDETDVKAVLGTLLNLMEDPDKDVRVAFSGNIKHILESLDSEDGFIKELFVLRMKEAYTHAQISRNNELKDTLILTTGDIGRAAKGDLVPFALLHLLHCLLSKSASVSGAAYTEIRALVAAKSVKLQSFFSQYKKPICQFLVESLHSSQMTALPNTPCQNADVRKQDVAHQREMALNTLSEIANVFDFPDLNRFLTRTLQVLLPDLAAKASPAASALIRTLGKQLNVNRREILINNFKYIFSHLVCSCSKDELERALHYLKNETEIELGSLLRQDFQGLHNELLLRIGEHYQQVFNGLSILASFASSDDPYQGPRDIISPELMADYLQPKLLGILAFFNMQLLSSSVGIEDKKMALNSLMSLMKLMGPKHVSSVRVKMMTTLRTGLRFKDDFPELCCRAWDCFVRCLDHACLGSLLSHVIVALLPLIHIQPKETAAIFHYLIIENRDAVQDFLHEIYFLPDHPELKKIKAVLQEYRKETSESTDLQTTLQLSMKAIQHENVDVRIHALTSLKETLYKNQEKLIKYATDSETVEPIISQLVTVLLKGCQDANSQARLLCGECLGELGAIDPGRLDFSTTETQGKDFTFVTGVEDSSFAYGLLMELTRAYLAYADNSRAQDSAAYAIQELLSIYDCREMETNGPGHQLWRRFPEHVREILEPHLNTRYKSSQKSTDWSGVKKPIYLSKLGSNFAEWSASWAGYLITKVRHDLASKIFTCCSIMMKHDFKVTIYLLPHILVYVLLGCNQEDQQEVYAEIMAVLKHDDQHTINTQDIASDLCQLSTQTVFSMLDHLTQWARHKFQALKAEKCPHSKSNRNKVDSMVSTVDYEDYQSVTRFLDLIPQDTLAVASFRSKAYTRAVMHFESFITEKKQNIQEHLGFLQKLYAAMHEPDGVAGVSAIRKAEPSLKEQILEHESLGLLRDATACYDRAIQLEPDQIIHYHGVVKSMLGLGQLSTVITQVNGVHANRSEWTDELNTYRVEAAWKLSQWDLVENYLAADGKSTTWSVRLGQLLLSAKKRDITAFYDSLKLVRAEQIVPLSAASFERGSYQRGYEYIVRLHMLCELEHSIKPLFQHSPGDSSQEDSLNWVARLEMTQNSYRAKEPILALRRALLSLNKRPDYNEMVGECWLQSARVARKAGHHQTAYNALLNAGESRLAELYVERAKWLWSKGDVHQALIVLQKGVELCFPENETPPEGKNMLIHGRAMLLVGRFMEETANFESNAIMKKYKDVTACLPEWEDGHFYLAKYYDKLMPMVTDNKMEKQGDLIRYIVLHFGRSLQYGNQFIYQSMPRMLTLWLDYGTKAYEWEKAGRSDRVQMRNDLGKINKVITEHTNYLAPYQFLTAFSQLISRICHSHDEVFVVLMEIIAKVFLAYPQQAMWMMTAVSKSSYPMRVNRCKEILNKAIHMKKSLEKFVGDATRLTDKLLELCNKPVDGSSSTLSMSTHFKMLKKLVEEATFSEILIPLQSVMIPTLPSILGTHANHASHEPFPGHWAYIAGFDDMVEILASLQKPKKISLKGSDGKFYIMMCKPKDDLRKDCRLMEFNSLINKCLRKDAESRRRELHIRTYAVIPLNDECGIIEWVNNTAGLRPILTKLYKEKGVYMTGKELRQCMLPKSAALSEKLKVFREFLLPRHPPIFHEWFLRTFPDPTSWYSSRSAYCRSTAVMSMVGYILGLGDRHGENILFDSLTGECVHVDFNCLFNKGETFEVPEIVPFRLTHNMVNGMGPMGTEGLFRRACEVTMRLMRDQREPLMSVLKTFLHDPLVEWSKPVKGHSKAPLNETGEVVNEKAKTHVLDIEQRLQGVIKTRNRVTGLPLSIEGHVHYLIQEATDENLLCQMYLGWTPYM
ATR, sequence (Q8WXE1 whole entry partner): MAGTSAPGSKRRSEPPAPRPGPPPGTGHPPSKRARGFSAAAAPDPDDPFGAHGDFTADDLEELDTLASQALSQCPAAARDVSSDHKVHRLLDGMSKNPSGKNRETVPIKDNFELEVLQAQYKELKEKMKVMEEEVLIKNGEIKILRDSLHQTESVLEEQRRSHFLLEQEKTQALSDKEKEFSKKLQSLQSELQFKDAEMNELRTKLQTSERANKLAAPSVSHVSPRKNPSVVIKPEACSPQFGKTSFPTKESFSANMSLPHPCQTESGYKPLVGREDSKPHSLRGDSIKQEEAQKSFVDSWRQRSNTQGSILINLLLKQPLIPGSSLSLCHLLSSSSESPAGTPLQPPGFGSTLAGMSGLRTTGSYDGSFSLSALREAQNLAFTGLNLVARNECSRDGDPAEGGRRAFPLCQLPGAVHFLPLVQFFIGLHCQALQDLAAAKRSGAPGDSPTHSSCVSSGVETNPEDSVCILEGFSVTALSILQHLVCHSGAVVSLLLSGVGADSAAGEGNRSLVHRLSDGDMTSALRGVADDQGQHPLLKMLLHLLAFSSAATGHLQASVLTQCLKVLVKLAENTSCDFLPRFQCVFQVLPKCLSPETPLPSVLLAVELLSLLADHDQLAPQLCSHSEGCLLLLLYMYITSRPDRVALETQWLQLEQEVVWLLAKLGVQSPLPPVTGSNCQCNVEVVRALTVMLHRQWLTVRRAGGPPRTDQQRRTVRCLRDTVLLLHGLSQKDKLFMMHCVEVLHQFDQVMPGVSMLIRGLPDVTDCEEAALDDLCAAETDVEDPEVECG

| SMILES | IC50 (ATR) | melting point [°C] | other results |
| --- | --- | --- | --- |
| CC(C)CC(=O)N1CCc2c(nc(-c3ccnc4[nH]ccc34)nc2N2CCOC[C@H]2C)C1 [ZH-4, (R)-3-methyl-1-(4-(3-methylmorpholino)-2-(1H-pyrrolo[2,3-b]pyridin-4-yl)-5,8-dihydropyrido[3,4-d]pyrimidin-7(6H)-yl)butan-1-one] | 0.00731 ± 0.00016 µM |  | IC50 (A549 cells): 20.9 ± 1.21 µM; IC50 (HCT116 cells): 5.17 ± 0.58 µM; IC50 (NCI-H23 cells): 1.74 ± 0.05 µM; IC50 (LoVo cells): 18 ± 1.69 µM |
| N.N.[Cl][Pt][Cl] [cisplatin, reference compound] |  |  | tumor growth inhibition (TGI) (LoVo xenografts; cisplatin 6 mg/kg twice a week, alone): 26.1% |
| C[C@@H]1COCCN1c1nc(-c2ccnc3[nH]ccc23)nc2c1CCN(C(=O)C1CCC(=O)CC1)C2 [ZH-10, (R)-4-(4-(3-methylmorpholino)-2-(1H-pyrrolo[2,3-b]pyridinedin-4-yl)-5,6,7,8-tetrahydropyrido[3,4-d]pyrimidine-7-carbonyl)cyclohexan-1-one] | 0.0275 µM and 0.0119 µM | 240 to 242 |  |
| C[C@@H]1COCCN1c1nc(-c2ccnc3[nH]ccc23)nc2c1CCN(C(=O)C1CC(=O)C1)C2 [ZH-9, (R)-3-(4-(3-methylmorpholino)-2-(1H-pyrrolo[2,3-b]pyridinedin-4-yl)-5,6,7,8-tetrahydropyrido[3,4-d]pyrimidine-7-carbonyl)cyclobutan-1-one] | 0.016 ± 0.00108 µM | 222 to 224 |  |
| C[C@@H]1COCCN1c1nc(-c2ccnc3[nH]ccc23)nc2c1CCN(C(=O)C1CCOCC1)C2 [ZH-8, (R)-(4-(3-methylmorpholino)-2-(1H-pyrrolo[2,3-b]pyridin-4-yl)-5,8-dihydropyrido[3,4-d]pyrimidin-7(6H)-yl)(tetrahydro-2H-pyran-4-yl)methanone] | 0.0275 ± 0.00104 µM |  |  |
| CCC(=O)N1CCc2c(nc(-c3ccnc4[nH]ccc34)nc2N2CCOC[C@H]2C)C1 [ZH-2, (R)-1-(4-(3-methylmorpholino)-2-(1H-pyrrolo[2,3-b]pyridin-4-yl)-5,8-dihydropyrido[3,4-d]pyrimidin-7(6H)-yl)propan-1-one] | 0.0416 ± 0.00138 µM |  |  |
| C[C@@H]1COCCN1c1cc(C2([S@](C)(=N)=O)CC2)nc(-c2cc[nH]c3nccc2-3)n1 [AZD6738, ceralasertib, reference compound] |  |  | IC50 (A549 cells): 6.6 ± 0.24 µM; IC50 (HCT116 cells): 4.32 ± 0.16 µM; IC50 (NCI-H23 cells): 0.5 ± 0.06 µM; IC50 (LoVo cells): 0.41 ± 0.01 µM; tumor growth inhibition (TGI) (LoVo xenografts; 25 mg/kg twice daily, days 1-18, single agent, AZD6738 orally, ZH-12 intraperitoneally): 42.5% |
| CCNC(=O)N1CCc2c(nc(-c3ccnc4[nH]ccc34)nc2N2CCOC[C@H]2C)C1 [ZH-11, (R)-N-ethyl-4-(3-methylmorpholino)-2-(1H-pyrrolo[2,3-b]pyridin-4-yl)-5,8-dihydropyrido[3,4-d]pyrimidine-7(6H)-carboxamide] | 0.0114 ± 0.00025 µM |  |  |
| C[C@@H]1COCCN1c1nc(-c2cccc3[nH]ccc23)nc2c1CCN(C(=O)C1CCOCC1)C2 [ZH-13, (R)-(2-(1H-indol-4-yl)-4-(3-methylmorpholino)-5,8-dihydropyrido[3,4-d]pyrimidin-7(6H)-yl)(tetrahydro-2H-pyran-4-yl)methanone] | 0.21466 ± 4e-05 µM |  |  |
| CCNC(=O)N1CCc2c(nc(-c3cccc4[nH]ccc34)nc2N2CCOC[C@H]2C)C1 [ZH-14, (R)-N-ethyl-2-(1H-indol-4-yl)-4-(3-methylmorpholino)-5,8-dihydropyrido[3,4-d]pyrimidine-7(6H)-carboxamide] | 0.0149 ± 0.00029 µM |  |  |
| COCC(=O)N1CCc2c(nc(-c3ccnc4[nH]ccc34)nc2N2CCOC[C@H]2C)C1 [ZH-7, (R)-2-methoxy-1-(4-(3-methylmorpholino)-2-(1H-pyrrolo[2,3-b]pyridinedin-4-yl)-5,8-dihydropyrido[3,4-d]pyrimidin-7(6H)-yl)ethan-1-one] | 0.00923 ± 0.00016 µM | 294 to 296 | IC50 (A549 cells): 25.6 ± 1.62 µM; IC50 (HCT116 cells): 6.02 ± 0.26 µM; IC50 (NCI-H23 cells): 6.77 ± 0.43 µM; IC50 (LoVo cells): 5.71 ± 0.81 µM |
| CCCC(=O)N1CCc2c(nc(-c3ccnc4[nH]ccc34)nc2N2CCOC[C@H]2C)C1 [ZH-3, (R)-1-(4-(3-methylmorpholino)-2-(1H-pyrrolo[2,3-b]pyridin-4-yl)-5,8-dihydropyrido[3,4-d]pyrimidin-7(6H)-yl)butan-1-one] | 0.0425 ± 0.00105 µM |  |  |
| CCS(=O)(=O)N1CCc2c(nc(-c3ccnc4[nH]ccc34)nc2N2CCOC[C@H]2C)C1 [ZH-1, (R)-4-(7-(ethylsulfonyl)-2-(1H-pyrrolo[2,3-b]pyridin-4-yl)-5,6,7,8-tetrahydropyrido[3,4-d]pyrimidin-4-yl)-3-methylmorpholine] | 0.0533 ± 0.00108 µM |  |  |
| C[C@@H]1COCCN1c1nc(-c2ccnc3[nH]ccc23)nc2c1CCN(C(=O)CO)C2 [ZH-6, (R)-2-hydroxy-1-(4-(3-methylmorpholino)-2-(1H-pyrrolo[2,3-b]pyridinedin-4-yl)-5,8-dihydropyrido[3,4-d]pyrimidin-7(6H)-yl)ethan-1-one] | 0.03403 ± 0.00027 µM | 174 to 176 |  |
| C[C@@H]1COCCN1c1nc(-c2ccnc3[nH]ccc23)nc2c1CCN(C(=O)CC#N)C2 [ZH-5, (R)-3-(4-(3-methylmorpholino)-2-(1H-pyrrolo[2,3-b]pyridinedin-4-yl)-5,8-dihydropyrido[3,4-d]pyrimidin-7(6H)-yl)-3-oxopropanenitrile] | 0.0113 µM and 0.0108 µM | > 250 |  |
